What was measured:
Zika virus = assay: EC50 is reported via analysis of immunofluorescence staining. The assay has been performed by Icahn School of Medicine at Mount Sinai.; assay type: functional, organism-based, Chlorocebus sabaeus, VeroE6/TMPRSS2; settings: for EC90: P-gp concentration 2 uM, P-gp inhibitor Elacidar
dengue virus type 2 = assay: Functional immunofluorescence assay to measure dose dependent changes in antiviral-drug inhibitory efficacy against Dengue virus type 2 Thailand/16681/84 in Vero E6/TMPRSS2 cells (cotreated with P-gp inhibitor, Elacridar). Cells are treated with antiviral candidates that are serially diluted, following infection, cells are fixed. EC50 is reported via analysis of immunofluorescence staining. The assay has been performed by Icahn School of Medicine at Mount Sinai.; assay type: organism-based, Chlorocebus sabaeus, VeroE6/TMPRSS2; settings: for EC90: P-gp concentration 2 uM, P-gp inhibitor Elacidar

In the case of `CCOC(=O)Nc1cc(Cl)cc(C(=O)Nc2cccc(CN)c2)c1`, the EC50 (Zika virus; Zika virus, VeroE6/TMPRSS2) is reported as greater than 50 µM, the EC90 (Zika virus; Zika virus, VeroE6/TMPRSS2, Maximum measured 144.074 %, Minimum measured 100.96 %) is reported as greater than 50 µM and the EC50 (dengue virus type 2; Dengue virus, VeroE6/TMPRSS2) is reported as greater than 16.7 µM. It also gave an EC90 (dengue virus type 2; Dengue virus, VeroE6/TMPRSS2, Maximum measured 179.291 %, Minimum measured 97.679 %) greater than 16.7 µM.

`O=C(Nc1cc(Cl)cc(S(=O)(=O)Nc2cccc(-c3nn[nH]n3)c2)c1)OCc1ccccc1` showed an EC50 (Zika virus; Zika virus, VeroE6/TMPRSS2) greater than 16.7 µM, an EC90 (Zika virus; Zika virus, VeroE6/TMPRSS2, Maximum measured 147.808 %, Minimum measured 131.825 %) greater than 16.7 µM and an EC50 (dengue virus type 2; Dengue virus, VeroE6/TMPRSS2) greater than 50 µM. It also gave an EC90 (dengue virus type 2; Dengue virus, VeroE6/TMPRSS2, Maximum measured 125.288 %, Minimum measured 43.28 %) greater than 50 µM.

For `O=C(Nc1cnc2c(c1)CNCC2)c1cc(Cl)cc2[nH]ncc12`, the EC50 (Zika virus; Zika virus, VeroE6/TMPRSS2) was 45.4 µM, the EC90 (Zika virus; Zika virus, VeroE6/TMPRSS2, Baseline response 0 %, Hill slope -15.177, Maximum measured 54.077 %, Maximum response 44.083 %, Minimum measured 8.284 %, R squared 0.548) was greater than 50 µM and the EC50 (dengue virus type 2; Dengue virus, VeroE6/TMPRSS2) was greater than 50 µM. The EC90 (dengue virus type 2; Dengue virus, VeroE6/TMPRSS2, Maximum measured 104.893 %, Minimum measured 59 %) was greater than 50 µM.

Compound `O=C(Nc1ccc2c(c1)CNC2)c1cc(Cl)ccc1SC1CCCC1` has an EC50 (Zika virus; Zika virus, VeroE6/TMPRSS2) greater than 16.7 µM, an EC90 (Zika virus; Zika virus, VeroE6/TMPRSS2, Maximum measured 121.888 %, Minimum measured 81.617 %) greater than 16.7 µM and an EC50 (dengue virus type 2; Dengue virus, VeroE6/TMPRSS2) greater than 16.7 µM. The EC90 (dengue virus type 2; Dengue virus, VeroE6/TMPRSS2, Maximum measured 58.655 %, Minimum measured 40.644 %) was greater than 16.7 µM.

`CC[C@H](Cc1nn[nH]n1)c1ccc(N[C@H](C(=O)NC)c2cc(Cl)cc(NC(=O)OCc3ccccc3)c2)cc1` showed an EC50 (Zika virus; Zika virus, VeroE6/TMPRSS2) greater than 50 µM, an EC90 (Zika virus; Zika virus, VeroE6/TMPRSS2, Maximum measured 168.95 %, Minimum measured 107.074 %) greater than 50 µM and an EC50 (dengue virus type 2; Dengue virus, VeroE6/TMPRSS2) greater than 50 µM. For the same compound, the EC90 (dengue virus type 2; Dengue virus, VeroE6/TMPRSS2, Baseline response 0 %, Hill slope -0.218, Maximum measured 117.472 %, Maximum response 100 %, Minimum measured 37.097 %, R squared 0.193) was greater than 50 µM.

`Cc1ccc(S(=O)(=O)CNC(=O)[C@H](Nc2ccc3c(c2)CNC3)c2cc(Cl)cc3[nH]ncc23)cc1` was tested, and the EC50 (Zika virus; Zika virus, VeroE6/TMPRSS2) was greater than 5.56 µM, the EC90 (Zika virus; Zika virus, VeroE6/TMPRSS2, Baseline response 0 %, Hill slope -0.504, Maximum measured 105.322 %, Maximum response 100 %, Minimum measured 58.532 %, R squared 0.723) was greater than 5.56 µM and the EC50 (dengue virus type 2; Dengue virus, VeroE6/TMPRSS2) was greater than 50 µM. The EC90 (dengue virus type 2; Dengue virus, VeroE6/TMPRSS2, Baseline response 0 %, Hill slope 0.271, Maximum measured 147.697 %, Maximum response 100 %, Minimum measured 56.785 %, R squared 0.117) was greater than 50 µM.

Work on `N#Cc1cc(Cl)cc([C@H](C#N)Nc2ccc3c(c2)CNC3)c1` yielded an EC50 (Zika virus; Zika virus, VeroE6/TMPRSS2) greater than 50 µM, an EC90 (Zika virus; Zika virus, VeroE6/TMPRSS2, Baseline response 0 %, Hill slope -0.289, Maximum measured 115.578 %, Maximum response 100 %, Minimum measured 78.039 %, R squared 0.102) greater than 50 µM and an EC50 (dengue virus type 2; Dengue virus, VeroE6/TMPRSS2) greater than 16.7 µM. For the same compound, the EC90 (dengue virus type 2; Dengue virus, VeroE6/TMPRSS2, Maximum measured 121.447 %, Minimum measured 87.688 %) was greater than 16.7 µM.

Compound `NCc1cccc(NC(=O)[C@@H](NC(=O)OCc2ccccc2)c2ccc(Br)c(Cl)c2)c1` has an EC50 (Zika virus; Zika virus, VeroE6/TMPRSS2) of 0.557 µM, an EC90 (Zika virus; Zika virus, VeroE6/TMPRSS2, Baseline response 0 %, Hill slope -0.711, Maximum measured 91.358 %, Maximum response 100 %, Minimum measured 2.864 %, R squared 0.54) greater than 5.56 µM and an EC50 (dengue virus type 2; Dengue virus, VeroE6/TMPRSS2) greater than 5.56 µM. It also gave an EC90 (dengue virus type 2; Dengue virus, VeroE6/TMPRSS2, Maximum measured 72.758 %, Minimum measured 24.513 %) greater than 5.56 µM.

Work on `CC[C@H](Cc1nnn[nH]1)c1ccc(NC(=O)c2cc(Cl)cc(C3CC3)c2)cc1` yielded an EC50 (Zika virus; Zika virus, VeroE6/TMPRSS2) greater than 50 µM, an EC90 (Zika virus; Zika virus, VeroE6/TMPRSS2, Maximum measured 167.989 %, Minimum measured 95.132 %) greater than 50 µM and an EC50 (dengue virus type 2; Dengue virus, VeroE6/TMPRSS2) greater than 16.7 µM. For the same compound, the EC90 (dengue virus type 2; Dengue virus, VeroE6/TMPRSS2, Maximum measured 194.23 %, Minimum measured 94.649 %) was greater than 16.7 µM.

In the case of `c1ccc(-c2csc(C3CCN(Cc4c[nH]c5ccccc45)CC3)n2)cc1`, the EC90 (Zika virus; Baseline response 0 %, Hill slope -0.213, Maximum measured 87.861 %, Maximum response 100 %, Minimum measured 39.067 %, R squared 0.218) is reported as greater than 1.85 µM, the EC50 (Zika virus; Zika virus, VeroE6/TMPRSS2) is reported as 0.919 µM and the EC90 (Zika virus; Zika virus, VeroE6/TMPRSS2, Baseline response 0 %, Hill slope -0.414, Maximum measured 90.11 %, Maximum response 100 %, Minimum measured 29.783 %, R squared 0.361) is reported as greater than 3.33 µM. The EC50 (Zika virus; veroe6/tmprss2) was 1.09 µM, the EC50 (dengue virus type 2; Dengue virus, VeroE6/TMPRSS2) was greater than 3.33 µM and the EC90 (dengue virus type 2; Dengue virus, VeroE6/TMPRSS2, Maximum measured 77.936 %, Minimum measured 57.835 %) was greater than 3.33 µM. For the same compound, the EC90 (dengue virus type 2; Dengue virus, VeroE6/TMPRSS2, Baseline response 0 %, Hill slope -0.326, Maximum measured 104.724 %, Maximum response 100 %, Minimum measured 54.484 %, R squared 0.233) was greater than 1.85 µM and the EC50 (dengue virus type 2; veroe6/tmprss2) was greater than 1.85 µM.

— ChEMBL document CHEMBL5661943, “ASAP - In vitro antiviral effect” (2024)
